These results are taken from paper PMC12152171, “Dual-mode recognition of tRNA^Pro isoacceptors by Toxoplasma gondii Prolyl-tRNA synthetase” (EMBO Reports, 2025).

Like-named read-outs stand apart in the source and are kept apart here.

Assay [1] deals with T1, Toxoplasma gondii prolyl-tRNA synthetase (TgProRS) (Toxoplasma gondii, UniProt S8G8I1).
T1 construct: gene TGME49_219850; lacking OTS and ProXp-ala (amino acid residues 1–333 removed), N-terminal His10 tag
The experiment in a line: [3H]-proline aminoacylation inhibition assay with cytosolic tRNA(Pro) (TgtRNAn^Pro); IC50 […] with apicoplast TgtRNAa^Pro. The assay is classed as biochemical.

The target of assay [2] is T1, Toxoplasma gondii prolyl-tRNA synthetase (TgProRS). The assay is described as above. The assay is classed as biochemical. This is another data set of the same source.

T1 sequence (S8G8I1 entry or part of it): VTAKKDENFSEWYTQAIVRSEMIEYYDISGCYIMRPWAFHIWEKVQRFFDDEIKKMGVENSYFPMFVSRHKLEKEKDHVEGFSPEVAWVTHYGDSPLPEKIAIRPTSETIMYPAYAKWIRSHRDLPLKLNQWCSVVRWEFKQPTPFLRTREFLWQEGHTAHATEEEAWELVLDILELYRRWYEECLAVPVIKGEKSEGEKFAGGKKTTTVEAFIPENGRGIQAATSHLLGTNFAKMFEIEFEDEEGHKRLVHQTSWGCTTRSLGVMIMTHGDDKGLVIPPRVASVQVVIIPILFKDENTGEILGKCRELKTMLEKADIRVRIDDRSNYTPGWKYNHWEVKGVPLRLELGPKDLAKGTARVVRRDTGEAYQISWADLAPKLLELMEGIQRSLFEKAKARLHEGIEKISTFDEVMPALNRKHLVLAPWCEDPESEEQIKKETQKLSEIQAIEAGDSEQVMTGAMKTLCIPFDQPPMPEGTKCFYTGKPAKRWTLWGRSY

As for `O=C(O)[C@@H]1CCN1` [A2C, Azetidine-2-carboxylic acid], in assay [1], the IC50 is 1300 µM.
In assay [2], `O=C(C[C@H]1NCCC[C@@H]1O)Cn1cnc2cc(Br)c(Cl)cc2c1=O` (racemic) [HF, Halofuginone] registered an IC50 of 0.005 µM.

One may read the IC50 as the concentration needed to halve the response being measured. Lower therefore signals greater potency.
